Key:
CYP 450 1A1 = molecular target: T1, CYP 450 1A1 (Homo sapiens, UniProt P04798); conditions: cited from earlier work
T1 sequence (P04798 1-512): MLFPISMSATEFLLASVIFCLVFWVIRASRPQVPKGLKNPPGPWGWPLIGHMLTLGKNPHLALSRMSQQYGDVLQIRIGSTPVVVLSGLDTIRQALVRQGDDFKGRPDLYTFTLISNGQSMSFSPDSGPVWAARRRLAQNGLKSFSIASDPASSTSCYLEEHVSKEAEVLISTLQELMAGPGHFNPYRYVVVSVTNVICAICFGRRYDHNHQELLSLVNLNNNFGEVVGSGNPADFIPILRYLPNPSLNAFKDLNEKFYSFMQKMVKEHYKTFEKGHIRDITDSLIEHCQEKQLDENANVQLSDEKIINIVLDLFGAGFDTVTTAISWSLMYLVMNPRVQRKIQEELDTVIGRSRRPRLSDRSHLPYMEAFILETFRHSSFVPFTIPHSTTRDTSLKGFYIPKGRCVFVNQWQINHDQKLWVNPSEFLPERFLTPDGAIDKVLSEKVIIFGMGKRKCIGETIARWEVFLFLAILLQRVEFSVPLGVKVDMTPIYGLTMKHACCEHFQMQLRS

[1] = tested on: hepatotoxicity produced by paracetamol; assay: Hepatotoxicity produced by paracetamol (CYP 450 bioactivation), LDH and GPT release in serum; assay type: in vivo; conditions: paracetamol alone
[2] = tested on: hepatotoxicity produced by galactosamine; assay: Hepatotoxicity produced by galactosamine (not dependent on CYP 450 bioactivation), LDH and GPT leakage; assay type: in vivo; conditions: galactosamine alone

O=C(/C=C/C=C/c1ccc2c(c1)OCO2)N1CCCCC1 [piperine]
inhibition of CYP 450 1A1 (in words) (CYP 450 1A1): specific inhibitor of CYP 450 1A1

CC(=O)Nc1ccc(O)cc1 [paracetamol]
Toxicity [1]: 93%

N[C@H]1C(O)O[C@H](CO)[C@H](O)[C@@H]1O (stereo partly drawn) [galactosamine]
Toxicity [2]: 93%

— patent publication US7001619B2, “Hepatocurative effect of emblica officinalis against CYP 450 bio-activation hepatotoxicity of drugs” (Council of Scientific and Industrial Research, priority 2002, dated 2006)
